Experiments:
Format in all cases: cell-based, rat
cortical cells = test: BrdU proliferation ELISA assay; conditions: 150 μg/ml, 24 h, FIG. 5
Description: (§1) BrdU-Incorporation Assay: For measuring the newly synthesized cells during proliferation of treated and un-treated cultured hippocampal, cortical and co-cultured cells, the BrdU (Calbiochem®, CA, USA) cell proliferation ELISA kit was used. This immunoassay is based on the measurement of BrdU (5-bromo-2′-deoxiurydine) incorporation into DNA during division phase of the proliferating cells. For BrdU proliferation assay, primary cultured cells were grown in 75 cm flasks and when cells were confluent they were trypsinized and re-plated with a cell density of 1×10^5 cells/mL in 96-well tissue culture grade flat bottom ELISA plates, i.e., (10,000 cells/well) in DMEM medium (high glucose). The plates were incubated overnight at 37° C. in 5% CO2. Next day, media was changed and adherent cells were treated with different doses of isoxylitones, i.e., 25, 50, 75, 100, and 150 μg/mL and incubated for 24 hrs in a humidified chamber at 37° C. and 5% CO2.
(§2) The following day, the cells were first labeled by the 20 μL of BrdU (1:2000) in fresh medium and kept in a humidified atmosphere at 37° C. for 24 hrs. During 20-24 hrs of labeling period, BrdU is incorporated in place of thymidine into the DNA of the proliferating cells. After removing the labeling medium by tapping off the plate, cells were fixed, and DNA denatured in one step by adding 200 μL of fixative or Denat solution (provided in the kit) in each well following incubation for 30 minutes at room temperature.
(§3) The fixation and denaturation of DNA is required to expose the incorporated BrdU for detection by the antibody. The fixative or Denat solution was removed by flicking off and tapping on paper towel. […] The immune complexes were detected by the subsequent substrate reaction and the absorbance was measured on spectrophotometer plate reader at dual wave lengths of 450-595 nm within 30 minutes of adding the stop solution. The data was analyzed using SPSS and graphs were made on Excel.

hippocampal cells = test: BrdU proliferation ELISA assay; conditions: 24 h, FIG. 5
Description: as §1, §2, §3

hypoxic cortical cells = test: In-vitro model of hypoxic pre-conditioning; conditions: 2 h hypoxia then treatment at various concentrations, vs positive control hypoxic cells, FIG. 7

CC(=O)C=C1C=C(C)CC(C)(C)C1 (mixture of isomers) [isoxylitones]
BrdU positive cells (cortical cells): slightly increased BrdU positive cells | BrdU positive cells (hippocampal cells; 100 μg/ml): significantly increased BrdU positive cells | BrdU positive cells (hippocampal cells; 150 μg/ml): significantly increased BrdU positive cells | recovery of hypoxic cells (phase-contrast morphology) (hypoxic cortical cells): Recovery of hypoxic cells clearly observed

Reference: patent US11065211B2, “Isoxylitones mediated neurogenesis” (priority 2018, dated 2021)
